From patent US20250122479A1, “GENERATION OF LUNG ORGANOIDS FROM PLURIPOTENT STEM CELLS AND USE THEREOF” (THE TRUSTEES OF COLUMBIA UNIVERSITY IN THE CITY OF NEW YORK, priority 2022, published 2025)

Assays:
Assay type in all cases: cell-based, human
TLOs [1] = assay: CHIR withdrawal from TLOs cultured in CK-DCI; settings: 1 to 5 days after withdrawal of CHIR; Ki67, cCASP3, AT2 marker RT-PCR
Experimental: As removing WNT signaling has been reported to induce AT2 maturation in alveolospheres,^26,27 we withdrew CHIR.
Matrigel embedded lung organoids can be used for TLO generation when they reach d42 of development. Media was removed from the transwell and 1 ml of 2 mg/ml dispase (Corning) was added to release lung organoid from the Matrigel for 30-45 minutes in normoxic incubator. The organoid was transferred to a 15 ml conical tube and washed with stop media (DMEM (Corning), 5% FBS (Atlanta Biologicals; Flowery Branch, Georgia), 1% Glutamax (ThermoFisher)) to neutralize Dispase, then centrifuged at […] for 5 minutes. The pellet was incubated with 1 ml of 0.05% Trypsin/EDTA in normoxic incubator for 10-12 minutes with occasional pipetting with a P1000 pipet tip. Single cell dissociation was verified using a bright field microscope. If a single cell suspension was not obtained after 12 minutes, cells were washed with stop media and incubated for additional 5 minutes with 0.05% Trypsin/EDTA. Cells were counted using a hemocytometer and 400 cells/μl of undiluted Matrigel were plated in a well of a 12-well non-tissue culture plate. […]

TLOs [2] = assay: Distal differentiation of TLOs (removal of CHIR and KGF, TGF-b blockade with SB); settings: removing CHIR and KGF and blocking TGF-b signaling using SB (DCI+SB)
Experimental: We next used empirical approaches to differentiate the cells into more mature proximal of distal lineages.
(§1) Total RNA was extracted according to manufacturer's instructions using the Direct-zol™ RNA Microprep (Zymo Research, Irvine, CA), and 500 ng of total RNA was reverse transcribed using the qScript™ XLT cDNA SuperMix (Quantabio, Beverly, MA). Technical triplicates of […] reaction (for use in Applied Biosystems QuantStudio7 384-well System, Waltham, MA) were prepared with 3 μl of diluted cDNA and run for 40 cycles. Relative gene expression was calculated based on the average cycle (Ct) value, normalized to GAPDH as the internal control and reported as fold change (2(−ddCT)).

WT (R2) TLO = assay: ER stress induction by tunicamycin, WT TLOs; settings: one week after removal of tunicamycin (5 hour challenge)
Experimental: (§2) We challenged for 5 hours with tunicamycin, a protein glycosylation inhibitor that prevents protein maturation and causes ER stress.^65 and measured ER stress components after 5 hrs, upon removal tunicamycin, and after 1 week (FIG. 7b). […] Of particular interest is ATF4, as ATF4 is an effector protein implicated not only in the UPR^ER via PERK phosphorylation but also in the integrated stress response (ISR)^66.
as §1

ABCA3−/− TLOs = assay: ER stress induction by tunicamycin, ABCA3-/- TLOs; settings: one week after removal of tunicamycin; compared with HPS1−/− TLOs
Experimental: as §2, §1

HPS1−/− TLOs [3] = assay: ER stress induction by tunicamycin, HPS1-/- TLOs
Experimental: as §2, §1

HPS1−/− TLOs [4] = settings: one week after removal of tunicamycin
Experimental: as §2

Molecule: Cc1c[nH]c(-c2cnc(NCCNc3ccc(C#N)cn3)nc2-c2ccc(Cl)cc2Cl)n1 [CHIR, CHIR99021]
- effect of CHIR withdrawal on TLOs (TLOs [1]): disintegration, proliferation arrest (FIG. 3b), apoptosis (FIG. 3c) and loss of AT2 markers

Molecule: NC(=O)c1ccc(-c2nc(-c3ccc4c(c3)OCO4)c(-c3ccccn3)[nH]2)cc1 [SB, SB431542]
- expression of AT2 and AT1 markers (TLOs [2]): further upregulation of not only AT2, but also of AT1 markers

Molecule: tunicamycin
- expression of ER stress mediators (XBP1, BIP, CHOP, ATF4) (WT (R2) TLO): expression of BIP, CHOP and ATF4 were strikingly increased
- expression of ER stress mediators (ABCA3−/− TLOs): A similar response, though less pronounced
- expression of ER stress mediators (BIP, XBP1 splicing) (HPS1−/− TLOs [3]; after 5 hrs tunicamycin challenge): significantly increased expression of BIP and of XBP1 splicing
- expression of ER stress mediators (XBP1 splicing, CHOP, ATF4) (HPS1−/− TLOs [3]; one week after removal of tunicamycin (5 hour challenge)): maintained elevated splicing of XBP1 but entirely failed to upregulate CHOP and ATF4
- apoptosis (HPS1−/− TLOs [4]): increased apoptosis
